Reference: patent US10815230B2, “Casein kinase 1 delta inhibitor” (ELECTROPHORETICS LIMITED, priority 2015, dated 2020)

Columns and labels:
Test in all cases: KINOMEscan binding assay
Conditions in all cases: read-out: % Ctrl @ 10000 nM
[1] = molecular target: ABL1 (M351T) phosphorylated (Homo sapiens, UniProt P00519, M351T)
[2] = molecular target: ABL1 (T315I) non-phosphorylated (Homo sapiens, UniProt P00519, T315I)
ABL1 non-phosphorylated = ABL1 non-phosphorylated (Homo sapiens, UniProt P00519)
ARK5 = ARK5 (Homo sapiens, UniProt O60285)
ASK1 = ASK1 (Homo sapiens, UniProt Q99683)
AXL = AXL (Homo sapiens, UniProt P30530)
BTK = BTK (Homo sapiens, UniProt Q06187)
CASK = CASK (Homo sapiens, UniProt O14936)
CDC2L2 = CDC2L2 (Homo sapiens, UniProt Q9UQ88)
DCAMKL1 = DCAMKL1 (Homo sapiens, UniProt O15075)
Chain of DCAMKL1 (O15075 whole entry): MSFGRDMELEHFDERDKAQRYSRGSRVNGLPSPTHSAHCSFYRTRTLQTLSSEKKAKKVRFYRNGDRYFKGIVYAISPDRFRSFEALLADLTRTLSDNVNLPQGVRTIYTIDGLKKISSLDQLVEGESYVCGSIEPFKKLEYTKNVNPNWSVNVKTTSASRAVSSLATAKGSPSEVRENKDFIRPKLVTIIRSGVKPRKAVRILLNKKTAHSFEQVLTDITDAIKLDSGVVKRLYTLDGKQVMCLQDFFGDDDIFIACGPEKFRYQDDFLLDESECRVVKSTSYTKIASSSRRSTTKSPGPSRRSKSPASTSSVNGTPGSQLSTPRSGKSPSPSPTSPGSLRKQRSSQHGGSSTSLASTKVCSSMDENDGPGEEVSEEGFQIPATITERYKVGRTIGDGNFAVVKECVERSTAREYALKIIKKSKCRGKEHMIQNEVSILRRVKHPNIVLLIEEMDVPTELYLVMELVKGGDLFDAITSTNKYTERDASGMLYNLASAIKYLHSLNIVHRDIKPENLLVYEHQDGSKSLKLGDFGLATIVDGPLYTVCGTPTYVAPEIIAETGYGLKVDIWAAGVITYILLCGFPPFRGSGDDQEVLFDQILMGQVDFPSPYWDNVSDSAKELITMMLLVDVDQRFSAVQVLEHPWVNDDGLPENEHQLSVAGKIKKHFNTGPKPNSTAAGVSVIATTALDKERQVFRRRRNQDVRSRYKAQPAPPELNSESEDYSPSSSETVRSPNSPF

DRAK1 = DRAK1 (Homo sapiens, UniProt Q9UEE5)
EGFR E746-A750del = EGFR E746-A750del (Homo sapiens, UniProt P00533, DEL746-750)
EPHB1 = EPHB1 (Homo sapiens, UniProt P54762)
FGFR3 = FGFR3 (Homo sapiens, UniProt P22607)
FLT3 (D835Y) = FLT3 (D835Y) (Homo sapiens, UniProt P36888, D835Y)
FYN = FYN (Homo sapiens, UniProt P06241)
GCN2 (Kin.Dom.2, S808G) = GCN2 (Kin.Dom.2, S808G) (Homo sapiens, UniProt Q9P2K8, S808G)
MARK1 = MARK1 (Homo sapiens, UniProt Q9P0L2)
MERTK = MERTK (Homo sapiens, UniProt Q12866)
Chain of MERTK (Q12866 21-999): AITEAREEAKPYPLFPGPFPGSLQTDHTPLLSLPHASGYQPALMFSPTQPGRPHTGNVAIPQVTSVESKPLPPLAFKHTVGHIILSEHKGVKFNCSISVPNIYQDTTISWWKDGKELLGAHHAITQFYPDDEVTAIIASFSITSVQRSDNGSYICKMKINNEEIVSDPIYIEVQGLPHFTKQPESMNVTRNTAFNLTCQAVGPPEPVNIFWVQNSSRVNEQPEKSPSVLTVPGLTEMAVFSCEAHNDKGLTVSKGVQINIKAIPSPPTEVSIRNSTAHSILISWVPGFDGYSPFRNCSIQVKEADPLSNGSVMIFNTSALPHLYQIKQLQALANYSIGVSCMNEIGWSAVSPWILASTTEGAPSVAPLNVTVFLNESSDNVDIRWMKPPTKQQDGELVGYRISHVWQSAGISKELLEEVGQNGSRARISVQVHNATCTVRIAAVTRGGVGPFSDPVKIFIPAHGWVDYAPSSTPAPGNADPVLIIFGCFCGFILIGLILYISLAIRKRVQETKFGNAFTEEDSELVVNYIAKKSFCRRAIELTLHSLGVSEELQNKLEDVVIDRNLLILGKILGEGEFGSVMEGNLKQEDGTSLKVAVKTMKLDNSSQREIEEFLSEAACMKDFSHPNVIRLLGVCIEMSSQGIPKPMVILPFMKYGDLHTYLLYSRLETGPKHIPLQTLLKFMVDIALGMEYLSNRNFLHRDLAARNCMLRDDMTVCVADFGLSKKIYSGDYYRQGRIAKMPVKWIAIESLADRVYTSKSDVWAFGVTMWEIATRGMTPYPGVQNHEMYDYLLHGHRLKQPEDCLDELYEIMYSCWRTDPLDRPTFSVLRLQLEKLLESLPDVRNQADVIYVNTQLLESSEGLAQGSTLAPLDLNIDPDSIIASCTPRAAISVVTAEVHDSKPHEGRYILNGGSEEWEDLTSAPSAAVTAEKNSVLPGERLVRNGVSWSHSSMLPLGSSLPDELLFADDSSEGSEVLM

MET (M1250T) = MET (M1250T) (Homo sapiens, UniProt P08581, M1250T)
MKNK2 = MKNK2 (Homo sapiens, UniProt Q9HBH9)
MRCKB = MRCKB (Homo sapiens, UniProt Q9Y5S2)
MST3 = MST3 (Homo sapiens, UniProt Q9Y6E0)
Chain of MST3 (Q9Y6E0 whole entry): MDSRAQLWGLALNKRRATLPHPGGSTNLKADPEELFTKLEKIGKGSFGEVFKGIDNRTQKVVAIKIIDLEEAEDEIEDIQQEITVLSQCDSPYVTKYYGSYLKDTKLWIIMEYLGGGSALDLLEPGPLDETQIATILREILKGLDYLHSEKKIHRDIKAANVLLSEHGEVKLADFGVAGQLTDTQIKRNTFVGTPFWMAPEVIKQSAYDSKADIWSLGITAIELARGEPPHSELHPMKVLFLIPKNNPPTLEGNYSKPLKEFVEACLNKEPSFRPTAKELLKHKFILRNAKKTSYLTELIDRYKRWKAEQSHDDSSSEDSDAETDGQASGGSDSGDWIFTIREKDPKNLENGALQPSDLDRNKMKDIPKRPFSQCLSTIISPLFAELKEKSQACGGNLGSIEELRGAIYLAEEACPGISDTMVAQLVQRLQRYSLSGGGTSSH

MTOR = MTOR (Homo sapiens, UniProt P42345)
NEK1 = NEK1 (Homo sapiens, UniProt Q96PY6)
p38-delta = p38-delta (Homo sapiens, UniProt O15264)
PCTK2 = PCTK2 (Homo sapiens, UniProt Q00537)
PDGFRA = PDGFRA (Homo sapiens, UniProt P16234)
PIK3CG = PIK3CG (Homo sapiens, UniProt P48736)
PIP5K1C = PIP5K1C (Homo sapiens, UniProt O60331)
PKAC-alpha = PKAC-alpha (Homo sapiens, UniProt P17612)
PRKCE = PRKCE (Homo sapiens, UniProt Q02156)
RET (M918T) = RET (M918T) (Homo sapiens, UniProt P07949, M918T)
Chain of RET (M918T) (P07949 29-1114 M918T): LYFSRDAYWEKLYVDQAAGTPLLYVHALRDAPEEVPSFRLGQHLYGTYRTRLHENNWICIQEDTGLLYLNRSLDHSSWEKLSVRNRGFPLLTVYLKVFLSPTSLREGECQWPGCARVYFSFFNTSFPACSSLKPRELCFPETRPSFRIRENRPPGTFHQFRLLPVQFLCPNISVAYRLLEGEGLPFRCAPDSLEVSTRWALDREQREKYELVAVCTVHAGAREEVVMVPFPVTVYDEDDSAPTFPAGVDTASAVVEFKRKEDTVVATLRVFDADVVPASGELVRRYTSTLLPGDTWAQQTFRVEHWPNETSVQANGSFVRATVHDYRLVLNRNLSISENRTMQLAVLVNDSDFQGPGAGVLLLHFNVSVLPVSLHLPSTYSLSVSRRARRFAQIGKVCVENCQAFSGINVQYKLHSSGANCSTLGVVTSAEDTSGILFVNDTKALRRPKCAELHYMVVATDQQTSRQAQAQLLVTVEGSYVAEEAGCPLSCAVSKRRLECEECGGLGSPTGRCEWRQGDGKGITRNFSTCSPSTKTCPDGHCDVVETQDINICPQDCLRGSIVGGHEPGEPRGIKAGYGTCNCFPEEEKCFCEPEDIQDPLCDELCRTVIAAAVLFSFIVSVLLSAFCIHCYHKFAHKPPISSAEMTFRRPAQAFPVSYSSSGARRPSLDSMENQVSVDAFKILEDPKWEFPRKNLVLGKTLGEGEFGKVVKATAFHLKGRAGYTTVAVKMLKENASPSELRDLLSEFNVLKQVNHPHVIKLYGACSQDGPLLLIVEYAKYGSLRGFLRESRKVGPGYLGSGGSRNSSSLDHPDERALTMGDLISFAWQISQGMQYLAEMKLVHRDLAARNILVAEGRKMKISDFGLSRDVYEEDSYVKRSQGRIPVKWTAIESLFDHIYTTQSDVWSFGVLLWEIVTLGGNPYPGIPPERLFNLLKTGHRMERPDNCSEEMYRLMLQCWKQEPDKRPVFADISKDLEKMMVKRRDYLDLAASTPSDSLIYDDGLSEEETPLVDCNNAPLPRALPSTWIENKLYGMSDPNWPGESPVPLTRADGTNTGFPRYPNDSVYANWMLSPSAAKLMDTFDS

RIOK3 = RIOK3 (Homo sapiens, UniProt O14730)
RIPK4 = RIPK4 (Homo sapiens, UniProt P57078)
[3] = molecular target: RPS6KA5 Kin.Dom.2-C-terminal (Homo sapiens, UniProt O75582)
SBK1 = SBK1 (Homo sapiens, UniProt Q52WX2)
Chain of SBK1 (Q52WX2 whole entry): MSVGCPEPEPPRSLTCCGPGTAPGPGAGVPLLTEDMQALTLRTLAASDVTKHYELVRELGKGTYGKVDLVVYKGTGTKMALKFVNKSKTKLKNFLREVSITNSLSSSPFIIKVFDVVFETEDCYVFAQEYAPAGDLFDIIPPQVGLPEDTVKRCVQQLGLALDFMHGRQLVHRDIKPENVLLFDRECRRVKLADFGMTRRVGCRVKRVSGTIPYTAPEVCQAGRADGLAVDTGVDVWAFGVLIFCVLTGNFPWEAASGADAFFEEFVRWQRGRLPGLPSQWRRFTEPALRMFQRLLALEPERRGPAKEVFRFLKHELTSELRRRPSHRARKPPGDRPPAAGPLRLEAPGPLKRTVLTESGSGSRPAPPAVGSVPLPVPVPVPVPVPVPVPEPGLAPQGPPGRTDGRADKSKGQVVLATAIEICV

SRC = SRC (Homo sapiens, UniProt P12931)
Chain of SRC (P12931 whole entry): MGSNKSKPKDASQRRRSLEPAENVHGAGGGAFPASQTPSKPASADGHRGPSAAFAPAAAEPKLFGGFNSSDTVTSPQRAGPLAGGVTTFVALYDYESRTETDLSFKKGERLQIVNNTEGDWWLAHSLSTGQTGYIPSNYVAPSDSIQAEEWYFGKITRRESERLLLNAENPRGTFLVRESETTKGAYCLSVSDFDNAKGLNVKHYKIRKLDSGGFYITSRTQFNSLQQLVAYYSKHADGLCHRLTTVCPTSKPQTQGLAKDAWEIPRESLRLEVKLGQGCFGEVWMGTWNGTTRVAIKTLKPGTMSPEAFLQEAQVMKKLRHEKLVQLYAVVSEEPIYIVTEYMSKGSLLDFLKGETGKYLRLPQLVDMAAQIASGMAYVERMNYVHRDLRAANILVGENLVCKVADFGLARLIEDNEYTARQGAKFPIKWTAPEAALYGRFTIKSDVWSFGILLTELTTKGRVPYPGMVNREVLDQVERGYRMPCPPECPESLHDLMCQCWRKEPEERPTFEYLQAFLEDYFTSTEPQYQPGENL

TAK1 = TAK1 (Homo sapiens, UniProt O43318)
TRKC = TRKC (Homo sapiens, UniProt Q16288)
Chain of TRKC (Q16288 32-839): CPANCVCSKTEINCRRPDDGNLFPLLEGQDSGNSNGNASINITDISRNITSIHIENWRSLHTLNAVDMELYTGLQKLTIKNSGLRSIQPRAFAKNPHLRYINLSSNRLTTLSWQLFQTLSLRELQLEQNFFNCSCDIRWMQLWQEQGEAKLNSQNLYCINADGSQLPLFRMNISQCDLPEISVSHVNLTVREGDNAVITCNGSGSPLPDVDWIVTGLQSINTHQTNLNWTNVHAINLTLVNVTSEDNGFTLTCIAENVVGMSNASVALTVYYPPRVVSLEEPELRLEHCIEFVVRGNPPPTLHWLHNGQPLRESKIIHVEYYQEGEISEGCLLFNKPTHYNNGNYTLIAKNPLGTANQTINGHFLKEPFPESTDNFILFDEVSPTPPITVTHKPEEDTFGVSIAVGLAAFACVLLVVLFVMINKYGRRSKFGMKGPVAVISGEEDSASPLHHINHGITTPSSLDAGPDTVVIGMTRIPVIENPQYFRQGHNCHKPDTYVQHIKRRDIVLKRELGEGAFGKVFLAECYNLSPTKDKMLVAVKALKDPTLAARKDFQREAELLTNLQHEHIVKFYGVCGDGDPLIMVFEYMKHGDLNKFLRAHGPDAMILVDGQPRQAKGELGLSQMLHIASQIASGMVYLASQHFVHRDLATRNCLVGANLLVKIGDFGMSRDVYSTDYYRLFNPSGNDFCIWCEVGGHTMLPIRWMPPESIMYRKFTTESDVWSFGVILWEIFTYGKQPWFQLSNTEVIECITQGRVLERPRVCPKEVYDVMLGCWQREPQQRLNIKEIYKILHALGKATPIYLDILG

YSK1 = molecular target: T1, YSK1 (Homo sapiens, UniProt O00506)
T1 construct: purchased DiscoveRx (KINOMEscan, LeadHunter Discovery services)

YSK4 = molecular target: T2, YSK4 (Homo sapiens, UniProt Q56UN5)
T2 construct: purchased DiscoveRx (KINOMEscan, LeadHunter Discovery services)

**Q.** What does the source list for `Nc1ncc(-c2nc3ccccc3o2)c(-c2ccncc2)n1` [Comparative Compound 324, 5-(1,3-benzoxazol-2-yl)-4-(pyridine-4-yl)pyrimidin-2-amine]?
**A.** remaining binding at 10 µM [1]: 79%; remaining binding at 10 µM [2]: 96%; remaining binding at 10 µM (ABL1 non-phosphorylated): 81%; remaining binding at 10 µM (ARK5): 100%; remaining binding at 10 µM (ASK1): 96%; remaining binding at 10 µM (AXL): 100%; remaining binding at 10 µM (BTK): 92%; remaining binding at 10 µM (CASK): 78%; remaining binding at 10 µM (CDC2L2): 100%; remaining binding at 10 µM (DCAMKL1): 41%; remaining binding at 10 µM (DRAK1): 100%; remaining binding at 10 µM (EGFR E746-A750del): 80%; remaining binding at 10 µM (EPHB1): 86%; remaining binding at 10 µM (FGFR3): 95%; remaining binding at 10 µM (FLT3 (D835Y)): 90%; remaining binding at 10 µM (FYN): 60%; remaining binding at 10 µM (GCN2 (Kin.Dom.2, S808G)): 98%; remaining binding at 10 µM (MARK1): 100%; remaining binding at 10 µM (MERTK): 99%; remaining binding at 10 µM (MET (M1250T)): 97%; remaining binding at 10 µM (MKNK2): 70%; remaining binding at 10 µM (MRCKB): 100%; remaining binding at 10 µM (MST3): 98%; remaining binding at 10 µM (MTOR): 71%; remaining binding at 10 µM (NEK1): 100%; remaining binding at 10 µM (p38-delta): 90%; remaining binding at 10 µM (PCTK2): 99%; remaining binding at 10 µM (PDGFRA): 86%; remaining binding at 10 µM (PIK3CG): 32%; remaining binding at 10 µM (PIP5K1C): 75%; remaining binding at 10 µM (PKAC-alpha): 91%; remaining binding at 10 µM (PRKCE): 95%; remaining binding at 10 µM (RET (M918T)): 88%; remaining binding at 10 µM (RIOK3): 57%; remaining binding at 10 µM (RIPK4): 65%; remaining binding at 10 µM [3]: 96%; remaining binding at 10 µM (SBK1): 83%; remaining binding at 10 µM (SRC): 84%; remaining binding at 10 µM (TAK1): 81%; remaining binding at 10 µM (TRKC): 81%; remaining binding at 10 µM (YSK1): 84%; remaining binding at 10 µM (YSK4): 88%

**Q.** `CNc1c(C(N)=O)c2ccccn2c1C(=O)c1ccc(F)cc1` [Compound A, 2-methyl-amino-3-[(4-fluorophenyl)carbonyl]indolizine-1-carboxamide] was tested. Which remaining binding at 10 µM [1] did it give?
**A.** The remaining binding at 10 µM was 49%.

**Q.** And the remaining binding at 10 µM [2]?
**A.** Its remaining binding at 10 µM is 89%.

**Q.** What about the remaining binding at 10 µM (ABL1 non-phosphorylated) of the same compound?
**A.** The remaining binding at 10 µM was 42%.

**Q.** And the remaining binding at 10 µM (ARK5)?
**A.** Its remaining binding at 10 µM is 85%.

**Q.** What about the remaining binding at 10 µM (ASK1) of the same compound?
**A.** The remaining binding at 10 µM was 87%.

**Q.** What about the remaining binding at 10 µM (AXL) of the same compound?
**A.** Its remaining binding at 10 µM is 95%.

**Q.** And the remaining binding at 10 µM (BTK)?
**A.** The remaining binding at 10 µM was 88%.

**Q.** What about the remaining binding at 10 µM (CASK) of the same compound?
**A.** The remaining binding at 10 µM was 77%.

**Q.** And the remaining binding at 10 µM (CDC2L2)?
**A.** Its remaining binding at 10 µM is 91%.

**Q.** And the remaining binding at 10 µM (DCAMKL1)?
**A.** Its remaining binding at 10 µM is 44%.

**Q.** And the remaining binding at 10 µM (DRAK1)?
**A.** Its remaining binding at 10 µM is 95%.

**Q.** And the remaining binding at 10 µM (EGFR E746-A750del)?
**A.** Its remaining binding at 10 µM is 25%.

**Q.** What about the remaining binding at 10 µM (EPHB1) of the same compound?
**A.** The remaining binding at 10 µM was 69%.

**Q.** What about the remaining binding at 10 µM (FGFR3) of the same compound?
**A.** The remaining binding at 10 µM was 90%.

**Q.** What about the remaining binding at 10 µM (FLT3 (D835Y)) of the same compound?
**A.** The remaining binding at 10 µM was 94%.

**Q.** And the remaining binding at 10 µM (FYN)?
**A.** The remaining binding at 10 µM was 33%.

**Q.** And the remaining binding at 10 µM (GCN2 (Kin.Dom.2, S808G))?
**A.** The remaining binding at 10 µM was 66%.

**Q.** What about the remaining binding at 10 µM (MARK1) of the same compound?
**A.** The remaining binding at 10 µM was 99%.

**Q.** And the remaining binding at 10 µM (MERTK)?
**A.** Its remaining binding at 10 µM is 55%.

**Q.** What about the remaining binding at 10 µM (MET (M1250T)) of the same compound?
**A.** Its remaining binding at 10 µM is 83%.

**Q.** And the remaining binding at 10 µM (MKNK2)?
**A.** The remaining binding at 10 µM was 58%.

**Q.** And the remaining binding at 10 µM (MRCKB)?
**A.** Its remaining binding at 10 µM is 100%.

**Q.** And the remaining binding at 10 µM (MST3)?
**A.** The remaining binding at 10 µM was 71%.

**Q.** And the remaining binding at 10 µM (MTOR)?
**A.** Its remaining binding at 10 µM is 96%.

**Q.** What about the remaining binding at 10 µM (NEK1) of the same compound?
**A.** Its remaining binding at 10 µM is 95%.

**Q.** What about the remaining binding at 10 µM (p38-delta) of the same compound?
**A.** Its remaining binding at 10 µM is 85%.

**Q.** And the remaining binding at 10 µM (PCTK2)?
**A.** The remaining binding at 10 µM was 83%.

**Q.** What about the remaining binding at 10 µM (PDGFRA) of the same compound?
**A.** The remaining binding at 10 µM was 89%.

**Q.** What about the remaining binding at 10 µM (PIK3CG) of the same compound?
**A.** Its remaining binding at 10 µM is 79%.

**Q.** And the remaining binding at 10 µM (PIP5K1C)?
**A.** Its remaining binding at 10 µM is 67%.

**Q.** And the remaining binding at 10 µM (PKAC-alpha)?
**A.** Its remaining binding at 10 µM is 42%.

**Q.** What about the remaining binding at 10 µM (PRKCE) of the same compound?
**A.** The remaining binding at 10 µM was 96%.

**Q.** And the remaining binding at 10 µM (RET (M918T))?
**A.** The remaining binding at 10 µM was 56%.

**Q.** And the remaining binding at 10 µM (RIOK3)?
**A.** Its remaining binding at 10 µM is 72%.

**Q.** And the remaining binding at 10 µM (RIPK4)?
**A.** The remaining binding at 10 µM was 78%.

**Q.** And the remaining binding at 10 µM [3]?
**A.** The remaining binding at 10 µM was 88%.

**Q.** What about the remaining binding at 10 µM (SBK1) of the same compound?
**A.** The remaining binding at 10 µM was 77%.

**Q.** What about the remaining binding at 10 µM (SRC) of the same compound?
**A.** Its remaining binding at 10 µM is 40%.

**Q.** What about the remaining binding at 10 µM (TAK1) of the same compound?
**A.** Its remaining binding at 10 µM is 56%.

**Q.** And the remaining binding at 10 µM (TRKC)?
**A.** Its remaining binding at 10 µM is 75%.

**Q.** What about the remaining binding at 10 µM (YSK1) of the same compound?
**A.** Its remaining binding at 10 µM is 64%.

**Q.** What about the remaining binding at 10 µM (YSK4) of the same compound?
**A.** The remaining binding at 10 µM was 73%.
